Test results reported in patent EP1849775A1, “Cycloalkane-substituted pyrazoline compounds, their preparation and use as medicaments” (LABORATORIOS DEL DR. ESTEVE, S.A., priority 2006, dated 2007).

Legend:
cannabinoid receptors = assay: Mouse tetrad model, antagonistic activity against Win 55212-2; type: in vivo; settings: Male NMRI mice; substance injected intravenously 5 minutes before intravenous 1.25 mg/kg Win-55,212; tetrad parameter not specified
Source text: II. In-vivo bioassay system for determination of cannabinoid activity
Substances with affinity for cannabinoid receptors are known to produce a wide range of pharmacological effects. It is also known that intravenous administration of a substance with affinity for cannabinoid receptors in mice produces analgesia , hypothermia, sedation and catalepsy. Individually, none of these effects can be considered as proof that a tested substance has affinity for cannabinoid-receptors, since all of these effects are common for various classes of centrally active agents. However, substances, which show all of these effects, i.e. substances that are active in this so-called tetrad model are considered to have affinity for the cannabinoid receptors. It has further been shown that cannabinoid receptor antagonists are higly effective in blocking the effects of a cannabinoid agonist in the mouse tetrad model.
The tetrad model is described, for example, in the publication of A. C. Howlett et al, International Union of Pharmacology XXVII. […]
Before testing in the behavioral procedures given below, mice are acclimatized to the experimental setting. Pre-Treatment control values are determined for analgesia hot plate latency (in seconds), rectal temperature, sedation and catalepsy.
In order to determine the agonistic activty of the substance to be tested, the mice are injected intravenously with the substance to be tested or the vehicle alone. 15 minutes after injection, latency in hot plate analgesia is measured. Rectal temperature, sedation and catalepsy are measured 20 minutes after injection.
In order to determine the antagonistic activity the identical procedure is used as for the determination of the agonistic effects, but with the difference that the substance to be evaluated for its antagonistic activity is injectected 5 minutes before the intravenous injection of 1.25 mg/kg Win-55,212 a known cannabinoid-receptor agonist. […]
The degree of analgesia is calculated from the formula: %MPE of Analgesia = (PT-B)/(PC-B) × 100 [formula] […]

CB1-Receptor = target: T1, CB1-Receptor (Homo sapiens, UniProt P21554); assay: In-vitro determination of affinity to CB1 receptor (radioligand binding); settings: Radiologand:[^3H]-CP55940, transfected human CB1 receptors
T1 construct: purchased Receptor Biology, Inc
T1 sequence (P21554 whole entry): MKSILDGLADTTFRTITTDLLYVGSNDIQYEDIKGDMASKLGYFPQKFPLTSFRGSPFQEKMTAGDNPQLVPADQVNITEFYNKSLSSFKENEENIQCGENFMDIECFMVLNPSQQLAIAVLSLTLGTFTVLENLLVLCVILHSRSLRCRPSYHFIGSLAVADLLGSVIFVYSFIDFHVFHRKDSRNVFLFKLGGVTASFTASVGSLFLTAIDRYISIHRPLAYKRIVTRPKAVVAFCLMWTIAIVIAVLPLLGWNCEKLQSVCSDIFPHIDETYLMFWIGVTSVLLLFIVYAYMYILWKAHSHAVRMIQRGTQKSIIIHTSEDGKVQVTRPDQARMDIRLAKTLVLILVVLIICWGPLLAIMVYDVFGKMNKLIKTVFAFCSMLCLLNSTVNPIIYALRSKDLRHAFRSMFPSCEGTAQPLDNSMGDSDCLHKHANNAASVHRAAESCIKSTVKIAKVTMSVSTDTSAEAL
Experimental: I. In-vitro determination of affinity to CB1/CB2-Receptors
The in-vitro determination of the affinity of the inventive quaternary ammonium salts of substituted pyrazoline compounds to CB1/CB2-Rezeptors is carried out as described in the publication of Ruth A. Ross, Heather C. Brockie et al., "Agonist-inverse agonist characterization at CB1 and CB2 cannabinoid receptors of L-759633, L759656 and AM630", British Journal of Pharmacology, 126, 665-672, (1999), whereby the transfected human CB1 and CB2 receptors of Receptor Biology, Inc. are used. The radioligand used for both receptors is [3H]-CP55940. The respective parts of the description are hereby incorporated by reference and forms part of the present disclosure.
The affinity of the inventive substituted pyrazoline compounds to CB1/CB2 receptors was determined as described above.

SMILES	Antagonistic Effect in (%) (cannabinoid receptors)	IC50 (CB1-Receptor) [nM]
O=C(NC1CCCCCC1)C1=NN(c2ccc(Cl)cc2Cl)[C@@H](c2ccc(Cl)cc2)C1 [Example 2, (R)-5-(4-chlorophenyl)-N-cycloheptyl-1-(2,4-dichlorophenyl)-4,5-dihydro-1H-pyrazole-3-carboxamide]	94	15.8
O=C(NC1CCCCCCC1)C1=NN(c2ccc(Cl)cc2Cl)C(c2ccc(Cl)cc2)C1 (stereo not drawn) [Example 5, 5-(4-chlorophenyl)-N-cyclooctyl-1-(2,4-dichlorophenyl)-4,5-dihydro-1H-pyrazole-3-carboxamide]	62±5	56.2
O=C(NC1CCCCCC1)C1=NN(c2ccc(Cl)cc2Cl)C(c2ccc(Cl)cc2)C1 (stereo not drawn) [Example 1, 5-(4-chlorophenyl)-N-cycloheptyl-1-(2,4-dichlorophenyl)-4,5-dihydro-1H-pyrazole-3-carboxamide]	84	100
